Laboratory results from patent publication US20070078083A1, “MODULATION OF NEUORGENESIS BY HDac INHIBITION” (BrainCells, Inc., priority 2005, published 2007).

How the values were obtained:
[1] = test system: Group I or Group III receptors; details: at sub-mM concentrations; cited from earlier work
mGluR2 = mGluR2 (Homo sapiens, UniProt Q14416); details: antagonist; read-out: IC50 value against mGluR2; cited from earlier work
mGluR3 = mGluR3 (Homo sapiens, UniProt Q14832); details: antagonist; read-out: IC50 value against mGluR3; cited from earlier work
Chain of mGluR3 (Q14832 23-879): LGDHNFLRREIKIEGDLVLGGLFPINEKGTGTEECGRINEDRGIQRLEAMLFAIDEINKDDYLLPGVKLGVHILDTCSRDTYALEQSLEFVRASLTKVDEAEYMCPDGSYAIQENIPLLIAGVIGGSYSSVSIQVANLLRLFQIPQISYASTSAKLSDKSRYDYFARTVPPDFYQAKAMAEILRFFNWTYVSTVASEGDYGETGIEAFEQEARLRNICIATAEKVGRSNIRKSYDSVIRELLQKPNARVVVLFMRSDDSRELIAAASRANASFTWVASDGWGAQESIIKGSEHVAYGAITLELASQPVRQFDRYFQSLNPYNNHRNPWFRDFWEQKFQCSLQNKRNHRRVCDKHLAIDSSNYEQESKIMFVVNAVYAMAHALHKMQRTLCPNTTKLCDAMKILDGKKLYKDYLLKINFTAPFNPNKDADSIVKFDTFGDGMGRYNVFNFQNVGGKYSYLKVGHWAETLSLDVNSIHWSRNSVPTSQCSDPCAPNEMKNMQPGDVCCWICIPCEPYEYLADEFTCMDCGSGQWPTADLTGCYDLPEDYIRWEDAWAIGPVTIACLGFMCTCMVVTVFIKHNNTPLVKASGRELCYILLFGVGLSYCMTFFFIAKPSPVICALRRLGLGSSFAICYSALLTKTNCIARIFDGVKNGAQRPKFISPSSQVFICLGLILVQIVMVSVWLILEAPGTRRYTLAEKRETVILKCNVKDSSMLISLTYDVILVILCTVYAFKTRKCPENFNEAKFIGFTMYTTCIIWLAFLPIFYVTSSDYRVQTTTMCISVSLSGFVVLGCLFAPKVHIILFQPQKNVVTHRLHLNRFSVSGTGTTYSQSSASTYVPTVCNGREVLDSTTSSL

[2] = test system: KA, AMPA, and NMDA iGlu receptors; details: cited from earlier work
human mGlu2 = human mGlu2 (Homo sapiens, UniProt Q14416); details: agonist; low nanomolar range; read-out: EC50 values against human mGlu2 receptors in vitro; cited from earlier work
Chain of human mGlu2 (Q14416 19-872): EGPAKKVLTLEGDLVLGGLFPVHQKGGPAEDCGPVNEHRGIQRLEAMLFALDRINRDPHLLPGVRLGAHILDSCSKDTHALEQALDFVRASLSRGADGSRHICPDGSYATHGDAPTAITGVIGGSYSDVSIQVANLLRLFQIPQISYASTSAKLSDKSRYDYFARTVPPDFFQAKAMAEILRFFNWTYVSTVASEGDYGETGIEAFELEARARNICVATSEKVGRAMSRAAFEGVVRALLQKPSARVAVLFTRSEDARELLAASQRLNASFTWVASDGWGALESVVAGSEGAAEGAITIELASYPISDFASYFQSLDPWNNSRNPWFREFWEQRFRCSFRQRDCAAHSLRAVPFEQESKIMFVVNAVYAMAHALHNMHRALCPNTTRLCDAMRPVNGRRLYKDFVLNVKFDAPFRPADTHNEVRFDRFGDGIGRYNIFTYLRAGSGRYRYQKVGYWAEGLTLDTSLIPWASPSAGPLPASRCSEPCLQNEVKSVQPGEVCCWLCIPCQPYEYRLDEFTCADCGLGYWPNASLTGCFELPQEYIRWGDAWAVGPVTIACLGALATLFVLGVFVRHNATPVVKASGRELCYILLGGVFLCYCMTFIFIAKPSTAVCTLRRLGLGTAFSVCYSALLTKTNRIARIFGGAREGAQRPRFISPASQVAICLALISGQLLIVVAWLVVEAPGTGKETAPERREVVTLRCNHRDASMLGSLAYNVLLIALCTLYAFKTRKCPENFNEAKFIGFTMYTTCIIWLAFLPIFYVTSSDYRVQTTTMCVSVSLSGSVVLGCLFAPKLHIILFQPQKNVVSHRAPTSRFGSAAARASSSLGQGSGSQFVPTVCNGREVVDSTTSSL

human mGlu3 = human mGlu3 (Homo sapiens, UniProt Q14832); details: agonist; low nanomolar range; read-out: EC50 values against human mGlu3 receptors in vitro; cited from earlier work
Chain of human mGlu3 (Q14832 23-879): as the sequence (Q14832 23-879) above

[3] = test system: rat NeuroD1, GluR2, NFH and GAP43 promoters; assay: In vitro rodent gene reporter assay in rNSC; assay type: cell-based; details: 2 days incubation
Text: Briefly, cultured rodent neural stem cells (rNSC) were transfected by electroporation with a vectors containing promoters specific for the rat NeuroD1, GluR2, NFH and GAP43 genes linked to the fluorescent reporter protein DsRed. All gene reporter constructs were cloned in the same lentiviral vector backbone, and mixed with Nucleofactor solution for electroporation. A GFP vector control was used in parallel to visualize effectiveness of electroporation. Transfected rNSCs were then suspended in test media containing varying concentrations of the HDac inhibitors trichostatin A, valproic acid, MS-275 or apicidin, and a mixture of 0.5 μg renilla luciferase and 5 μg promoter-specific […] luciferase. The cells were incubated in 5% CO2 at 37° C. for 2 days, and then lysed, whereupon the cell extracts were read on a Tecan Genios Pro reader to detect the promoter-specific activation of the reporter constructs.

[4] = test system: human neural stem cells (hNSCs); assay: Astrocyte differentiation of hNSCs (GFAP staining); assay type: cell-based; details: cultured hNSCs
Text: Results are shown in FIGS. 2 and 11, which show the lack of astrocyte differentiation of human neural stem cells in the presence of trichostatin A and valproic acid, respectively.

[5] = test system: human neural stem cells (hNSCs); assay: Neuronal differentiation of human neural stem cells (TUJ-1 staining); assay type: cell-based; details: for differentiation along a neuronal lineage (in words): hNSCs
[6] = test system: neural stem and/or progenitor cells in the dentate gyrus; assay: In vivo chronic dosing study, BrdU-positive cells in dentate gyrus; set-up: species or system rat; details: male Fischer F344 rats, 300 mg/kg for 28 days, vs vehicle
Method: Male Fischer F344 rats were treated with 300 mg/kg of valproic acid for 28 days, and then anesthetized and killed by transcardial perfusion of 4% paraformaldehyde at day 28. Brains were rapidly removed and stored in 4% paraformaldehyde for 24 hours and then equilibrated in phosphate buffered 30% sucrose. Free floating 40 micron sections were collected on a freezing microtome and stored in cyroprotectant. Antibodies against BrdU and cells types of interest (e.g., neurons, astrocytes, oligodendrocytes, endothelial cells) were used for detection of cell survival and differentiation. […] The proportion of BrdU cells displaying a lineage-specific phenotype was determined by scoring the co-localization of cell phenotype markers with BrdU using confocal microscopy. […] When possible, 100 or more BrdU-positive cells were scored for each maker per animal. Each cell was manually examined in first full “z”-dimension and only those cells for which the nucleus was unambiguously associated with the lineage-specific marker were scored as positive. The total number of BrdU-labeled cells per hippocampal granule cell layer and subgranular zone were determined using diaminobenzadine stained tissues. Overestimation was corrected using the Abercrombie method for nuclei with empirically determined average diameter of 13 um within a 40 um section.

[7] = test system: human neural stem cells (hNSCs); assay: Anti-proliferative effects on human neural stem cell clusters (area over fourteen days); assay type: cell-based; details: hNSC clusters after 14 days; basal media control 164%
Text: 7, 2006 (incorporated by reference). […] Cell clusters were imaged and their area measured over fourteen days. […] As the results described in Example 3 indicate, reduction in growth is not due to increased toxicity or reduced survival, and therefore the observed reduced growth of the cell clusters results from decreased proliferation of human neural stem cells in the presence of the HDac inhibitor.

Chain of mGluR2 (Q14416 19-872): as the sequence (Q14416 19-872) above

## NC1(C(=O)O)CCc2cc(P(=O)(O)O)ccc21 (racemic) [APICA, (RS)-1-amino-5-phosphonoindan-1-carboxylic acid]
[1]
  activity against Group I or Group III receptors: no appreciable activity
mGluR2
  IC50: ~30 µM
mGluR3
  IC50: ~30 µM

## N[C@](CC1c2ccccc2Oc2ccccc21)(C(=O)O)[C@H]1C[C@@H]1C(=O)O [LY341495, (2S)-2-amino-2-(1S,2S-2-carboxycycloprop-1-yl)-3-(xanth-9-yl) propanoic acid]
[2]
  activity against KA, AMPA, and NMDA iGlu receptors: substantially inactive

## N[C@@]1(C(=O)O)CO[C@H]2[C@H](C(=O)O)[C@H]21 [LY379268, (−)-2-Oxa-4-aminobicyclohexane-4,6-dicarboxylic acid]
Human mGlu2
  EC50: < 0.01 µM
Human mGlu3
  EC50: < 0.01 µM

## Nc1ccccc1NC(=O)c1ccc(CNC(=O)OCc2cccnc2)cc1 [MS-275]
[3]
  expression of promoters for the neurofilament high (NFH) and growth associated protein 43 (GAP43) genes: promote expression
  neurogenic activity, activation of the rat NeuroD1, GluR2, NFH and GAP43 promoters: neurogenic

## CC(/C=C/C(=O)NO)=C\[C@@H](C)C(=O)c1ccc(N(C)C)cc1 [Trichostatin A, trichostatin A]
[4]; highest concentration tested approximately 31.6 nM
  EC50: > 0.0316 µM
[5]; cultured hNSCs, two experiments (Run A, Run B), normalized to neuronal positive control
  EC50: ~0.00345 µM
[5]
  differentiation along a neuronal lineage (in words): permits differentiation of cells along a neuronal lineage

## CCCC(CCC)C(=O)O [Valproic acid, 2-propylpentanoic acid]
[4]; Homo sapiens, Neural stem cell, highest tested concentration approximately 10.0 μM
  EC50: > 10 µM
[3]
  expression of promoters for the neurofilament high (NFH) and growth associated protein 43 (GAP43) genes: promote expression
  neurogenic activity, activation of the rat NeuroD1, GluR2, NFH and GAP43 promoters: neurogenic
[6]
  proliferation in the dentate gyrus (proportion of BrdU-positive cells): significantly decreased proliferation
[5]
  differentiation along a neuronal lineage (in words): continues to promote neuronal differentiation
[7]
  area occupied by cells, percent of the starting area: 86%
